Measured values from patent publication US6413974B1, “6,9,-disubstituted 2-[trans-(4-aminocyclohexyl) amino] purines” (Aventis Pharmaceuticals Inc., priority 1998, dated 2002).
Values joined by “and” are separate entries in the source; they are usually repeats but may differ in a detail not shown here. Equal values may be shown once. Where a name gives a salt, the structure may show the parent alone. Read-outs that look alike come from different tables or passages of the source.

Legend:
cdk2/cyclin E = target: T1, cdk2/cyclin E (Homo sapiens, UniProt P24941); test: Cyclin-Dependent Kinase 2 Assay (cdk-2 inhibition); type: biochemical; conditions: GST-Rb substrate, 30 min at 30° C.
T1 construct: made in house; host or cells: insect cells (baculovirus co-infection)
How it was run: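 GST-Rb bound to glutathione-Sepharose beads (0.5 μg/well) as substrate in 50 mM HEPES pH 7.5, 10 mM MgCl2, 1 mM EGTA. Recombinant cdk2/cyclin E at 0.1 μg per 100 μl, 30 min at 30 °C. Reaction stopped by filtration, TNEN washes, scintillation counting.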

cdk4/cyclin D1 = target: T2, cdk4/cyclin D1 (Homo sapiens, UniProt P11802); test: Cyclin-dependent kinase 4 Assay; type: biochemical; conditions: cdk4/cyclin D1, GST-Rb substrate, 10 μM ATP, 30 min at 37° C.; read-out: CDK4 Inhibition IC50
T2 construct: made in house; host or cells: Sf9 insect cells (Bac-to-Bac baculovirus, pFastBac)
T2 sequence (P11802 whole entry): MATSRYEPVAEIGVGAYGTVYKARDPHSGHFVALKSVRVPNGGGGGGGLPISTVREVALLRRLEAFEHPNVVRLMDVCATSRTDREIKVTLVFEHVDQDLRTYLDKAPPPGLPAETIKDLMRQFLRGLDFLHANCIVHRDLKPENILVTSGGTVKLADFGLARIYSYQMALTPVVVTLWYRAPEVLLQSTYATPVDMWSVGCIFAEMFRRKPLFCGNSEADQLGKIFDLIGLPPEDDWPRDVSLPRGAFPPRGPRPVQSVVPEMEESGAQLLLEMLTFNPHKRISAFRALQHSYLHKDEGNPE
T2 sequence (P24385 whole entry partner): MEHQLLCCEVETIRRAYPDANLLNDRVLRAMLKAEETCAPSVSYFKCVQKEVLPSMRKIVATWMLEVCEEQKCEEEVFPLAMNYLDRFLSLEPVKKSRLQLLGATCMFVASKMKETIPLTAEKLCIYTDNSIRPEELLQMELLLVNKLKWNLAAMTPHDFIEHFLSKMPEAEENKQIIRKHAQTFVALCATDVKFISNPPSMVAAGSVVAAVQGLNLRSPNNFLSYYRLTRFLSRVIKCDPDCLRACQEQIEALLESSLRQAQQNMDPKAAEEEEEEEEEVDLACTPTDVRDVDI
How it was run: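 Insect-cell lysate of coexpressed human cdk4/cyclin D1 (0.1 μg) phosphorylated bead-bound GST-Rb (0.5 μg) in 50 mM HEPES pH 7.5, 10 mM MgCl2, 1 mM EGTA for 30 min at 37 °C. Filters were washed with TNEN and scintillation-counted; IC50 values derived.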

MCF-7 = test: In vitro tumor cell proliferation, MCF-7; type: cell-based, human; conditions: read-out: In vitro Tumor Cell Proliferation (IC50, μM) Breast MCF-7
Description: (§1) The proliferation of tumor cells was measured using a sulforhodamine B assay as described in Skehan, P., et al., J. Natl. Cancer Inst. […] Tumor cells were harvested with trypsin-EDTA, cells that excluded trypan blue were counted, added to 96-well plates and incubated overnight at 37° C. Drug was added to the wells following dilution in culture medium. Three days later, the medium was removed and replenished with medium containing fresh drug and incubated an additional 4 days. The cells were then fixed with 0.1 ml 10% trichloroacetic acid for 60 min at 4° C. The plates were rinsed five times with tap water, air-dried and stained for 30 min with 0.4% sulforhodamine B in 1% acetic acid and air-dried.
(§2) Alternatively, the CyQUANT cell proliferation assay was used to quantify tumor cell proliferation. Tumor cells were harvested with trypsin-EDTA, cells that excluded trypan blue were counted, added to 96-well plates and incubated overnight at 37° C. Drug was added to the wells following dilution in culture medium. Three days later the medium was removed and the plates frozen at −80° C. for at least 30 minutes.
MCF7 is a human breast adenocarcinoma, hormone-dependent (HTB 22);

MDA-MB-231 = test: In vitro tumor cell proliferation, MDA-MB-231; type: cell-based, human; conditions: read-out: In vitro Tumor Cell Proliferation (IC50, μM) Breast MDA-MB-231
How it was run: (§3)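 SRB read-out: 3-day drug exposure, medium and drug renewed, 4 further days, TCA fixation at 4° C, 0.4% SRB stain. CyQUANT alternative: 3-day drug exposure, then plates frozen at −80° C ≥30 min. Cells plated overnight at 37° C before dosing.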

HT-29 = test: In vitro tumor cell proliferation, HT-29; type: cell-based, human; conditions: read-out: In vitro Tumor Cell Proliferation (IC50, μM) Colon HT-29 (converted)
How it was run: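 HT-29 human colon adenocarcinoma cells plated overnight at 37° C., then exposed to drug for 3 days, medium with fresh drug replaced for a further 4 days. Cells fixed with 10% TCA and stained with 0.4% sulforhodamine B; alternatively, CyQUANT read after 3 days of drug exposure.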

HCT-15 = test: In vitro tumor cell proliferation, HCT-15; type: cell-based, human; conditions: read-out: In vitro Tumor Cell Proliferation (IC50, μM) Colon HCT-15
Description: as §1, §2

A549 = test: In vitro tumor cell proliferation, A549; type: cell-based, human; conditions: read-out: In vitro Tumor Cell Proliferation (IC50, μM) Lung A549
How it was run: as §3

DMS-114 = test: In vitro tumor cell proliferation, DMS-114; type: cell-based, human; conditions: read-out: In vitro Tumor Cell Proliferation (IC50, μM) Lung DMS-114
How it was run: as §3

PC-3 = test: In vitro tumor cell proliferation, PC-3; type: cell-based, human; conditions: read-out: In vitro Tumor Cell Proliferation (IC50, μM) Prostate PC-3
How it was run: as §3

DU 145 = test: In vitro tumor cell proliferation, DU 145; type: cell-based, human
How it was run: as §3

[1] = Homo sapiens, MCF7, values without *
[2] = values without *, dihydrochloride
[3] = Homo sapiens, MDA-MB-231, values without *
[4] = Homo sapiens, HT-29, values without *
[5] = Homo sapiens, HCT-15, values without *
[6] = Homo sapiens, A549, values without *
[7] = Homo sapiens, DMS-114, values without *
[8] = Homo sapiens, PC-3, values without *
[9] = Homo sapiens, DU-145, values without *, read-out: In vitro Tumor Cell Proliferation (IC50, μM) Prostate DUI45
[10] = values without *, dihydrochloride, read-out: In vitro Tumor Cell Proliferation (IC50, μM) Prostate DUI45

N[C@H]1CC[C@H](Nc2nc(NCC3CCCCO3)c3ncn(C4CCCC4)c3n2)CC1 (relative stereo) [Example 30, 2-[Trans-(4-aminocyclohexyl)amino]-6-[(2-tetrahydropyranyl)methylamino]-9-cyclopentylpurine dihydrochloride]
IC50 (cdk2/cyclin E): 0.126 µM | IC50 (cdk4/cyclin D1): 0.6 µM | IC50 (MCF-7; [1]): 2.5 µM | IC50 (MCF-7; [2]): 3.1 µM | IC50 (MDA-MB-231; [3]): 6.4 µM | IC50 (MDA-MB-231; [2]): 8.6 µM | IC50 (HT-29; [4]): 5.3 µM | IC50 (HT-29; [2]): 7.9 µM | IC50 (HCT-15; [5]): 21 µM | IC50 (HCT-15; [2]): 22 µM | IC50 (A549; [6]): 2.5 µM | IC50 (A549; [2]): 3.1 µM | IC50 (DMS-114; [7]): 2.9 µM | IC50 (DMS-114; [2]): 3.7 µM | IC50 (PC-3; [8]): 1.9 µM | IC50 (PC-3; [2]): 2.3 µM | IC50 (DU 145; [9]): 3.3 µM | IC50 (DU 145; [10]): 4 µM

N[C@H]1CC[C@H](Nc2nc(NCc3cccc(I)c3)c3ncn(C4CCCC4)c3n2)CC1 [Example 1, 2-[Trans-(4-aminocyclohexyl)amino]-6-(3-iodobenzylamino)-9-cyclopentylpurine dihydrochloride]
IC50 (cdk2/cyclin E): 0.05 µM and 0.07 µM and 0.085 µM and 0.037 µM and 0.055 µM and 0.065 µM | IC50 (cdk4/cyclin D1): 2 µM | IC50 (MCF-7; [1]): 0.7 µM | IC50 (MCF-7; [2]): 0.6 µM | IC50 (MDA-MB-231; [3]): 1.1 µM | IC50 (MDA-MB-231; [2]): 0.8 µM | IC50 (HT-29; [4]): 0.9 µM | IC50 (HT-29; [2]): 1 µM and 1.6 µM | IC50 (HCT-15; [5]): 2.2 µM | IC50 (HCT-15; [2]): 1.9 µM | IC50 (A549; [6]): 1.1 µM | IC50 (A549; [2]): 1 µM | IC50 (DMS-114; [7]): 1.2 µM | IC50 (DMS-114; [2]): 0.9 µM | IC50 (PC-3; [8]): 1.9 µM | IC50 (PC-3; [2]): 1.1 µM and 1.2 µM | IC50 (DU 145; Homo sapiens, DU-145, read-out: In vitro Tumor Cell Proliferation (IC50, μM) Prostate DUI45, values without *): 2 µM | IC50 (DU 145; read-out: In vitro Tumor Cell Proliferation (IC50, μM) Prostate DUI45, values without *, dihydrochloride): 1.6 µM and 1.2 µM

N[C@H]1CC[C@H](Nc2nc(NCc3ccc(Cl)cc3)c3ncn(C4CCCC4)c3n2)CC1 [Example 27, 2-[Trans-(4-aminocyclohexyl)amino]-6-[(4-chlorobenzyl)amino]-9-cyclopentylpurine dihydrochloride]
IC50 (cdk2/cyclin E): 0.44 µM | IC50 (cdk4/cyclin D1): 17 µM and 9 µM | IC50 (MDA-MB-231; [3]): 7 µM | IC50 (HT-29; [4]): 16 µM | IC50 (HCT-15; [2]): 15 µM | IC50 (A549; [6]): 8.4 µM | IC50 (A549; [2]): 11 µM | IC50 (DMS-114; [7]): 9.5 µM | IC50 (DMS-114; [2]): 6.8 µM | IC50 (PC-3; [8]): 8.7 µM | IC50 (DU 145; [9]): 7.2 µM | IC50 (DU 145; [10]): 11 µM

CC(C)n1cnc2c(NCC3CC3)nc(N[C@H]3CC[C@H](N)CC3)nc21 [Example 32, 2-[Trans-(4-aminocyclohexyl)amino]-6-[(cyclopropyl)methylamino]-9-(2-propyl)purine dihydrochloride]
IC50 (cdk2/cyclin E): 0.21 µM and 0.096 µM | IC50 (MCF-7; [1]): 9.3 µM | IC50 (MCF-7; [2]): 5.3 µM | IC50 (MDA-MB-231; [3]): 16 µM | IC50 (MDA-MB-231; [2]): 8.1 µM | IC50 (HT-29; [2]): 11 µM | IC50 (HCT-15; [5]): > 20 µM | IC50 (HCT-15; [2]): 24 µM | IC50 (A549; [2]): 10 µM | IC50 (PC-3; [8]): 9.7 µM | IC50 (PC-3; [2]): 6.9 µM | IC50 (DU 145; [9]): 17 µM | IC50 (DU 145; [10]): 10 µM

N[C@H]1CC[C@H](Nc2nc(NCc3ccc(Cl)cc3F)c3ncn(C4CCCC4)c3n2)CC1 [Example 40, 2-[Trans-(4-aminocyclohexyl)amino]-6-[(4-chloro-2-fluorobenzyl)amino]-9-cyclopentylpurine dihydrochloride]
IC50 (cdk2/cyclin E): 0.19 µM | IC50 (cdk4/cyclin D1): 3.1 µM and 1 µM | IC50 (MCF-7; [1]): 1.7 µM | IC50 (MCF-7; [2]): 3.3 µM | IC50 (MDA-MB-231; [3]): 3.1 µM | IC50 (MDA-MB-231; [2]): 3.5 µM | IC50 (HT-29; [4]): 1.6 µM | IC50 (HT-29; [2]): 3.2 µM | IC50 (HCT-15; [5]): 4.2 µM | IC50 (HCT-15; [2]): 3.6 µM | IC50 (A549; [6]): 2.01 µM | IC50 (A549; [2]): 3.6 µM | IC50 (DMS-114; [7]): 2.3 µM | IC50 (DMS-114; [2]): 2 µM | IC50 (DU 145; [9]): 2 µM | IC50 (DU 145; [10]): 3.5 µM

N[C@H]1CC[C@H](Nc2nc(NCc3ccccc3)c3ncn(C4CCCC4)c3n2)CC1 [Example 47, 2-[Trans-(4-aminocyclohexyl)amino]-6-[benzylamino]-9-cyclopentylpurine dihydrochloride]
IC50 (MCF-7; [1]): 1 µM | IC50 (MCF-7; [2]): 1.7 µM | IC50 (HT-29; [4]): 2.2 µM | IC50 (HT-29; [2]): 2.7 µM | IC50 (HCT-15; [5]): 5.5 µM | IC50 (HCT-15; [2]): 6.1 µM | IC50 (A549; [6]): 1.7 µM | IC50 (DMS-114; [2]): 1.3 µM | IC50 (PC-3; [8]): 0.93 µM | IC50 (PC-3; [2]): 1.3 µM

N[C@H]1CC[C@H](Nc2nc(NCc3ccc(Cl)cc3Cl)c3ncn(C4CCCC4)c3n2)CC1 [Example 48, 2-[Trans-(4-aminocyclohexyl)amino]-6-[(2,4-dichlorobenzyl)amino]-9-cyclopentylpurine dihydrochloride]
IC50 (cdk2/cyclin E): 0.8 µM | IC50 (cdk4/cyclin D1): 4.4 µM and 5.3 µM | IC50 (MDA-MB-231; [3]): 3 µM | IC50 (MDA-MB-231; [2]): 3.1 µM and 2 µM and 1.8 µM | IC50 (HT-29; [4]): 2.8 µM | IC50 (HT-29; [2]): 2.7 µM and 2.4 µM | IC50 (HCT-15; [5]): 3.1 µM | IC50 (HCT-15; [2]): 3.7 µM and 3.4 µM | IC50 (A549; [6]): 2.2 µM | IC50 (A549; [2]): 2.3 µM and 2.1 µM | IC50 (DMS-114; [7]): 1.8 µM | IC50 (DMS-114; [2]): 1.9 µM and 2 µM and 1.4 µM | IC50 (PC-3; [8]): 2 µM | IC50 (PC-3; [2]): 1.9 µM and 1.6 µM | IC50 (DU 145; [9]): 3.2 µM | IC50 (DU 145; [10]): 3.4 µM and 2.8 µM and 2.5 µM

N[C@H]1CC[C@H](Nc2nc(NCc3ccc(F)cc3)c3ncn(C4CCCC4)c3n2)CC1 [Example 50, 2-[Trans-(4-aminocyclohexyl)amino]-6-[(4-fluorobenzyl)amino]-9-cyclopentylpurine dihydrochloride]
IC50 (cdk2/cyclin E): 0.094 µM | IC50 (cdk4/cyclin D1): 7.7 µM and 3.1 µM | IC50 (MCF-7; [1]): 1.9 µM | IC50 (MCF-7; [2]): 3.3 µM | IC50 (MDA-MB-231; [3]): 3.2 µM | IC50 (MDA-MB-231; [2]): 4.5 µM | IC50 (HT-29; [4]): 4 µM | IC50 (HT-29; [2]): 4.8 µM | IC50 (HCT-15; [5]): 7.4 µM | IC50 (HCT-15; [2]): 7.7 µM | IC50 (DMS-114; [7]): 3.7 µM | IC50 (DMS-114; [2]): 2.4 µM | IC50 (PC-3; [8]): 2 µM | IC50 (PC-3; [2]): 2.3 µM | IC50 (DU 145; [9]): 1.9 µM | IC50 (DU 145; [10]): 3.3 µM
